{"source": "patent US20210393745A1", "about": "“OLIGOMER EXTENDED INSULIN-FC CONJUGATES AND THEIR MEDICAL USE” (Novo Nordisk A/S, priority 2018, published 2021)", "key": {"[1]": {"molecular_target": "T1, membrane-associated human IR-A (Homo sapiens, UniProt P06213)", "T1 construct": "expressed in transfected cells; host or cells: BHK cells, pZem219B vector, plasma membrane preparation", "T1 sequence (P06213 28-1370 isoform P06213-2 limits assumed)": "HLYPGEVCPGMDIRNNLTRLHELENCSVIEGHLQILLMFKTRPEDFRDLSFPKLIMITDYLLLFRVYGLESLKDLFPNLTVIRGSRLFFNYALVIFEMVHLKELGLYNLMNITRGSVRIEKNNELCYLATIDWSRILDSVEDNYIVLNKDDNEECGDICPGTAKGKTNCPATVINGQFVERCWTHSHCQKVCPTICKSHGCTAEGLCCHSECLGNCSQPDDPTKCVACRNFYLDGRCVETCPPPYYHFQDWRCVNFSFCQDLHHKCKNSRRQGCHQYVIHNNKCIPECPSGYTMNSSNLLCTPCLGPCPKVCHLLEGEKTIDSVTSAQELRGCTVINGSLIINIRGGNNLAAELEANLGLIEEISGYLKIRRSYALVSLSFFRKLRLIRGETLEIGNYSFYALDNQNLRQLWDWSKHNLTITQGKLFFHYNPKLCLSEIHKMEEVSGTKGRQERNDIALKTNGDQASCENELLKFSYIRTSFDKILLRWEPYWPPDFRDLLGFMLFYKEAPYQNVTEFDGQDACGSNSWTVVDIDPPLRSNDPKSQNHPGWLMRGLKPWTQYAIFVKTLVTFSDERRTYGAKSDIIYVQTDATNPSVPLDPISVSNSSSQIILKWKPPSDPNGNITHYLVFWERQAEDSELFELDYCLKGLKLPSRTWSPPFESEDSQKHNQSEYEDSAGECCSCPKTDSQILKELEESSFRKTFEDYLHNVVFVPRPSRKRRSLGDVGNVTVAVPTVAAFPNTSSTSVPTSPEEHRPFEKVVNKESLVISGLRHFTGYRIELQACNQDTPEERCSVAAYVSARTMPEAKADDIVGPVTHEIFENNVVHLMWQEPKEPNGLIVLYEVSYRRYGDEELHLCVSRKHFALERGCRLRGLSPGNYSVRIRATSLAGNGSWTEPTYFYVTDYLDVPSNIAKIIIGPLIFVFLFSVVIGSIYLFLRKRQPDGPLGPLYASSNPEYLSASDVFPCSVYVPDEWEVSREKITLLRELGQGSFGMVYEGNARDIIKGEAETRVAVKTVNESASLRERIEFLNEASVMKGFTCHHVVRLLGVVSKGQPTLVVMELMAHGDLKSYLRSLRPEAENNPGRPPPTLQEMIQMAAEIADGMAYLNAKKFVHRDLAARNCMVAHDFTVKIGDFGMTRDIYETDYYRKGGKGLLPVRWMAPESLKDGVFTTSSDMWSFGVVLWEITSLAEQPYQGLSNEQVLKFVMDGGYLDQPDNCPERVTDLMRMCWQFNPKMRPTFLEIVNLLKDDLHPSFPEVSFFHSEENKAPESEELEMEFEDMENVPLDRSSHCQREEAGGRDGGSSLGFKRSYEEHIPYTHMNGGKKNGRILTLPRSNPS", "T1 sequence (P06213 763-1382 partner limits assumed)": "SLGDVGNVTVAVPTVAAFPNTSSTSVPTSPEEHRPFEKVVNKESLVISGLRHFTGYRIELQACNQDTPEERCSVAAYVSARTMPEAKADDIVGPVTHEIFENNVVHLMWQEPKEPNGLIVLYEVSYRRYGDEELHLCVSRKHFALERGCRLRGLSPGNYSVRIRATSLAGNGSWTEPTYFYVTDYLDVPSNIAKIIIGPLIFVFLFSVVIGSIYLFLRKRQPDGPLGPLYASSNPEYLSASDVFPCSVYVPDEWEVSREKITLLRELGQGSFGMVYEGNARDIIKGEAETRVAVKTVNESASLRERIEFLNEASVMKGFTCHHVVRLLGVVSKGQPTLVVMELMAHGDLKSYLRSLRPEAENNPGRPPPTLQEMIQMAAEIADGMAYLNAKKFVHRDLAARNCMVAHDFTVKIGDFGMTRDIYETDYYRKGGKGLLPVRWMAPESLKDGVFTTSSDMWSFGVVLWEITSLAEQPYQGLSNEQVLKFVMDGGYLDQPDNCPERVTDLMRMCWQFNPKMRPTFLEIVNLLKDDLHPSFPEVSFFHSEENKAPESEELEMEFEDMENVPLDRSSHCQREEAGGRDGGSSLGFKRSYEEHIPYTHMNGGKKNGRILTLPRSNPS", "experiment": "Insulin receptor affinity on membrane associated receptors (SPA), IR-A", "format": "binding", "conditions": "relative to human insulin", "experimental": "(§1) Membrane-associated human IR and IGF-1R are purified from BHK cells stably transfected with the pZem219B vector containing either the human IR-A, IR-B or IGF-IR insert. BHK cells are harvested and homogenized in ice-cold buffer (25 mM HEPES pH 7.4, 25 mM CaCl2 and 1 mM MgCl2, 250 mg/L bacitracin, 0.1 mM Pefablock). The homogenates are layered on a 41% (w/v) sucrose cushion and centrifuged for 75 minutes at 95000 g at 4° C. The plasma membranes are collected, diluted 1:5 with buffer (as above) and centrifuged again for 45 minutes at 40000 g at 4° C. The pellets are resuspended in a minimal volume of buffer and drawn through a needle (size 23) three times before storage at −80° C. until usage. The relative binding affinity for either of the membrane-associated human IR-A, IR-B or IGF-1R is determined by competition binding in a SPA setup. IR assays are performed in duplicate in 96-well OptiPlates (Perkin-Elmer Life Sciences). Membrane protein is incubated with gentle agitation for 150 minutes at 25° C. with 50 pM [^125IA14Y]-human insulin in a total volume of […] assay buffer (50 mM HEPES, 150 mM NaCl, 5 mM MgSO4, 0.01% Triton X-100, 0.1% (w/v) HSA (Sigma A1887), Complete EDTA-free protease inhibitors), 50 μg of wheat germ agglutinate (WGA)-coated PVT microspheres (GE Healthcare) and increasing concentrations of ligand. Assays are terminated by centrifugation of the plate at 2000 rpm for 2 minutes and bound radioactivity quantified by counting on a TopCount NXT (Perkin-Elmer Life Sciences).\n(§2) IGF-1R assays are conducted essentially as for the IR binding assays except that membrane-associated IGF-1R and 50 pM [^125I-Tyr31]-human IGF-1 were employed."}, "[2]": {"molecular_target": "T2, membrane-associated human IR-B (Homo sapiens, UniProt P06213)", "T2 construct": "expressed in transfected cells; host or cells: BHK cells, pZem219B vector, plasma membrane preparation", "T2 sequence (P06213 28-758 limits assumed)": "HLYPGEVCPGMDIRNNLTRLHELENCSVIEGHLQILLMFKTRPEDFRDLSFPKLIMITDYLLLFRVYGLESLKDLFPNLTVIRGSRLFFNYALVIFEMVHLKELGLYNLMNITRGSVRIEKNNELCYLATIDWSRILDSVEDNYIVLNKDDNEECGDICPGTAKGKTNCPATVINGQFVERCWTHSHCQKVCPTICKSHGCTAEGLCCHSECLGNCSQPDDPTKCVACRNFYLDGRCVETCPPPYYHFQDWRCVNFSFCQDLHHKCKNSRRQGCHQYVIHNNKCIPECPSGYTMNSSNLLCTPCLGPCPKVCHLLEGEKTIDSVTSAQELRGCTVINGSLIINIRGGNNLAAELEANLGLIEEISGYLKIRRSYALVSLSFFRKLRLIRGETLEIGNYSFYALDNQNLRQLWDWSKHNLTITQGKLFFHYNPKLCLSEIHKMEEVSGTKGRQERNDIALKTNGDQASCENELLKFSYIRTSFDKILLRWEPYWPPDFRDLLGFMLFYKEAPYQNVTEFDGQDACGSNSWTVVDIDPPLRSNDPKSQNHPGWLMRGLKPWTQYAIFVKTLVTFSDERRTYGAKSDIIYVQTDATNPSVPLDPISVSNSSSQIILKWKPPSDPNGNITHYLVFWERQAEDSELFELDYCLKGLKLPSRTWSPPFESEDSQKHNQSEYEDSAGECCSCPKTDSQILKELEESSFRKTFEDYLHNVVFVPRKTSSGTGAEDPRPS", "T2 sequence (P06213 763-1382 partner limits assumed)": "as the sequence (P06213 763-1382 partner limits assumed) above", "experiment": "Insulin receptor affinity on membrane associated receptors (SPA), IR-B", "format": "binding", "conditions": "relative to human insulin", "experimental": "as §1, §2"}, "[3]": {"molecular_target": "T3, membrane-associated human IGF-1R (Homo sapiens, UniProt P08069)", "T3 construct": "expressed in transfected cells; host or cells: BHK cells, pZem219B vector, plasma membrane preparation", "T3 sequence (P08069 31-736 limits assumed)": "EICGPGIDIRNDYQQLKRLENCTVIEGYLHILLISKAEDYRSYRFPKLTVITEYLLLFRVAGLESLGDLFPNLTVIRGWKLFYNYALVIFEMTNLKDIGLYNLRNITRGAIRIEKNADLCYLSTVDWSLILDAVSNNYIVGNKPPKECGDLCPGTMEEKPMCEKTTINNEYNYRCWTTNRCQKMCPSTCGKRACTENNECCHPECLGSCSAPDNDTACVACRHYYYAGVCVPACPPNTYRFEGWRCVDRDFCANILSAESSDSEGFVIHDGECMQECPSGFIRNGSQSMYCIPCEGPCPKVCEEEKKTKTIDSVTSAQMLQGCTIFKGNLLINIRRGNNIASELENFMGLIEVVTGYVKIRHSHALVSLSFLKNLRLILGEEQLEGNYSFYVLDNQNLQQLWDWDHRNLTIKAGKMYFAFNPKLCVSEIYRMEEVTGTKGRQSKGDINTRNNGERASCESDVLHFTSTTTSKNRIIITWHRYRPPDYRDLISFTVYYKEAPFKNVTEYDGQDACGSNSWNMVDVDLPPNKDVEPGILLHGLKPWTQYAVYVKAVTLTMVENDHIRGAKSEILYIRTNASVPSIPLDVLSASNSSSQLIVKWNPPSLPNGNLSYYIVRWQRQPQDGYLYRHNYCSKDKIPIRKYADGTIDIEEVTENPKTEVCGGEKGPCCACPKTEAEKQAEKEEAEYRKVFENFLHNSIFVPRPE", "T3 sequence (P08069 741-1367 partner limits assumed)": "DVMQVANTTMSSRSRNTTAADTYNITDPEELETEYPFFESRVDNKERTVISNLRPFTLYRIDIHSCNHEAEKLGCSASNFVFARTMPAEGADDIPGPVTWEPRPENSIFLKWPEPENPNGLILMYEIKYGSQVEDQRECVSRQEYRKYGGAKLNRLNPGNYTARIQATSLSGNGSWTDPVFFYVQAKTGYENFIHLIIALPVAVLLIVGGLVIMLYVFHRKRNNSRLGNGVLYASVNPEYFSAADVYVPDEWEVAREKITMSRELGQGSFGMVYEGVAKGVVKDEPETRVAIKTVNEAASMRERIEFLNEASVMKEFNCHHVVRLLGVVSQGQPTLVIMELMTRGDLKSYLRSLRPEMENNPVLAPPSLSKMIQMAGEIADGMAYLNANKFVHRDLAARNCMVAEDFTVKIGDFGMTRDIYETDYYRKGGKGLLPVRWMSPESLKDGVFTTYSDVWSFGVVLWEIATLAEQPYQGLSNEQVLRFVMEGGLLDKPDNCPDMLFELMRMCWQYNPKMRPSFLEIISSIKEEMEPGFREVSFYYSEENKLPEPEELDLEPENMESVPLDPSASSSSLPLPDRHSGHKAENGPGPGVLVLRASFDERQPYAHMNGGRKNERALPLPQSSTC", "experiment": "IGF-1 receptor affinity on membrane associated receptors (SPA)", "format": "binding", "conditions": "membrane-associated IGF-1R, relative to human insulin", "experimental": "as §1, §2"}, "primary rat adipocytes": {"system": "primary rat adipocytes", "experiment": "Lipogenesis in rat adipocytes", "format": "cell-based", "conditions": "relative to human insulin", "experimental": "As a measure of in vitro potency of the insulin conjugatess of the invention, lipogenesis can be used. Primary rat adipocytes are isolated from the epididymale fat pads and incubated with 3H-glucose in buffer containing e.g. 0.1% fat free HSA and either standard (human insulin, HI) or insulin conjugates of the invention. The labelled glucose is converted into extractable lipids in a dose dependent way, resulting in full dose response curves. The result is expressed as relative potency (%) with 95% confidence limits of insulin of the invention compared to standard (HI)."}, "[4]": {"experiment": "In vivo PK after s.c. dosing, normal rats", "set-up": "species or system Sprague-Dawley rat", "conditions": "s.c. 30 nmol/kg, mean value", "experimental": "(§3) Insulin-Fc conjugates were tested in vivo by subcutaneous (s.c.) administration to normal and streptozotocin (STZ) treated male Sprague-Dawley (SD) rats.\n(§4) The rats were dosed s.c. in the neck region with a dose of 30 nmol/kg of the insulin-Fc conjugates. Blood samples for blood glucose and plasma insulin analysis were collected from the tongue vein up to 10 days post dosing. The insulin-Fc concentrations were measured by immuno-assay (LLOQ=1000 pM) and the resulting half-life values after s.c. dosing are shown in Table 4. The PK profiles for normal rats are shown in FIG. 3 and for streptozotocin treated rats in FIG. 6. Blood glucose (BG) was measured using Biosen S Line (EKF) and the BG and baseline corrected BG profiles for normal rats are shown in FIGS. 1 and 2 and for streptozotocin treated rats in FIGS. 4 and 5 respectively."}, "[5]": {"experiment": "In vivo PK after s.c. dosing, streptozotocin treated rats", "set-up": "species or system Sprague-Dawley rat", "conditions": "s.c. 30 nmol/kg, mean value", "experimental": "as §3, §4"}, "[6]": {"system": "normal Sprague-Dawley rats", "experiment": "In vivo PD, blood glucose lowering in normal rats", "set-up": "species or system Sprague-Dawley rat", "conditions": "s.c. 30 nmol/kg, baseline corrected BG up to 10 days, difference from vehicle, mean", "experimental": "as §3, §4"}, "[7]": {"system": "streptozotocin treated Sprague-Dawley rats", "experiment": "In vivo PD, blood glucose lowering in streptozotocin treated rats", "set-up": "species or system Sprague-Dawley rat", "conditions": "s.c. 30 nmol/kg, baseline corrected BG up to 10 days, difference from vehicle, mean", "experimental": "as §3, §4"}, "[8]": {"experiment": "Stability study: purity by anionic exchange chromatography", "format": "physicochemical", "conditions": "purity %(5° C.) − purity %(30° C.), 30 μM, pH 7.4", "experimental": "Samples for stability studies were prepared by weighing out 8-10 mg freeze-dried material. The freeze-dried material was solubilized to […] in a premade solution A (5 mM phophate (pH 7.4), 140 mM NaCl and 70 ppm polysorbate 20). Protein concentration was determined using absorbance at 280 nm using a Nanodrop 2000 (Thermo Fisher Scientific Inc.) and theoretical extinction coefficients. Dilution into solution A was done to reach a final concentration of 30 μM.\nAnionic exchange chromatography was performed on an Ultra-Performance Liquid Chromatography system (Waters Acquity H-Class) equipped with a fluorescence detector (Waters Acquity FLR Detector). A Bio SAX column with dimensions 50×4.6 mm from Agilent, kept at 30° C., was used in gradient elution mode. Mobile phase A was 5/95 (v/v), acetonitrile/water with 25 mM BIS-TRIS propane, pH 7.3 and mobile phase B was 5/95 (v/v), acetonitrile/water with 25 mM BIS-TRIS propane and 350 mM NaCl, pH 7.3. Injection volume was 3 μL. The flow rate was kept at 0.5 mL/min with a linear gradient from 10 to 47% B in 3 min followed by a linear gradient from 47 to 55% B in 30 min. Peaks were detected with an emission wavelength of […] and data processing is performed with the EMPOWER 3 software from Waters. Samples were analysed for purity as percent API in relation to all other species.\nReported as Δ purity %=purity %(5° C.)−purity % (30° C.).\nStability of Fc-insulin analogues was evaluated by comparing purity from anion exchange chromatography and formation of high molecular weight products (HMWP) at 5° C. (control) versus 30° C. (heat induced stress). […] The amount of HMWP was decreased by 0.5-2% in the stressed sample versus the control, i.e. some aggregated material has disassociated during incubation at 30° C."}, "hFcRn ectodomain": {"molecular_target": "T4, hFcRn ectodomain (Homo sapiens, UniProt P55899)", "T4 construct": "the hFcRn ectodomain diluted at 4000 nM with 2-fold serial dilutions was injected", "T4 sequence (P55899 24-297 limits assumed)": "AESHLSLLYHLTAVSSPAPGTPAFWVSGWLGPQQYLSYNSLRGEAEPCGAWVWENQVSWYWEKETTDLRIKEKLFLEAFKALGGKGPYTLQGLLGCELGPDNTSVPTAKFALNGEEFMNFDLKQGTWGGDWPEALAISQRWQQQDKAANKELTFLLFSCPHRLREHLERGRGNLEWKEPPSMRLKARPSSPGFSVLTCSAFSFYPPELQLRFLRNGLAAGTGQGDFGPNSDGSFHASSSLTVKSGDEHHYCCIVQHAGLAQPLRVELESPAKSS", "T4 sequence (P61769 21-119 partner)": "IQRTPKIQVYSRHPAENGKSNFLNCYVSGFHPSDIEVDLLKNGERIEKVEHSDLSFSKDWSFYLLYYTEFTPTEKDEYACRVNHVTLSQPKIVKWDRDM", "experiment": "SPR analysis of the binding of hFcRn ECD", "conditions": "pH 6.0, 25° C., steady-state fitting; read-out: Kn (μM), binding of hFcRn ECD", "experimental": "First, the three Insulin-Fc samples diluted at 10 ug/ml and the wild-type hIgG4 Fc (produced in HEK293 cells, i.e. glycosylated) diluted at 30 ug/ml in 10 mM sodium acetate (pH 4.5) (GE Healthcare, catalogue #BR100350) were immobilized on a CMD50L sensor chip (XanTec Bioanalytics GmbH) at spot 2 or 4 at 70-90 RU in each used flow cell via amine coupling with 1×HBS-EP+ (pH 7.4) (GE Healthcare, catalogue #BR-1006-69) used as the running buffer. The wild-type hIgG4 Fc was used as the control sample. In each used flow cell, spots 2, 3 and 4 were activated by 100 mM N-hydroxysuccinimide (NHS) and 400 mM N-ethyl-N′-dimethylaminopropyl carbodiimide hydrochloride (EDC) mixed at equal volume before the immobilization and blocked by 1 M ethanolamine hydrochloride-NaOH (pH 8.5) after the immobilization. NHS, EDC and ethanolamine were obtained from the Amine Coupling Kit, type 2 (GE Healthcare, catalogue #BR100633).\nNext, the hFcRn ectodomain diluted at 4000 nM with 2-fold serial dilutions was injected through each used flow cell for 60 sec to allow for binding of the hFcRn ectodomain to the Insulin-Fc conjugates and wild-type hIgG4 Fc samples immobilized on the sensor chip, followed by dissociation for 180 sec. 1×PBS-EP+ (pH 6.0) was used as the dilution buffer for the hFcRn ectodomain and the running buffer in each binding cycle at the flow rate of 30 ul/min. After each binding cycle, the sensor chip was regenerated with a 60 sec injection of 1×PBS-EP+ (pH 7.4) at the flow rate of 30 ul/min. The 1×PBS-EP+ (pH 7.4) buffer was prepared by diluting 0.5 M EDTA (pH 8.0) (Invitrogen, catalogue #15575038) at 3 mM into 1×PBS-P+ (GE Healthcare, catalogue #28995084). The 1×PBS-EP+ (pH 6.0) buffer was prepared by adjusting the pH of the 1×PBS-EP+ buffer from 7.4 to 6.0 using ˜10 M HCl. The affinities (equilibrium dissociation constants, KD) were determined via steady-state fitting of the binding curves using the 1:1 binding model in Biacore 4000 Evaluation Software 1.0 (GE Healthcare)."}}, "data": [{"substance": "(A14E, A21G, A22(GQEP)11, A66G, A67Q, A68E, A69K^, A70P, B16E, B25H, B29R, desB30 human insulin)/(226A, 227G, 228P, 234A, 235K, 297E, 315Q, 384Q, des447 hIgG4-Fc(226-447))3,5-bis[(2-acetyl)amino]benzoyl Conjugate [Example 5.3]", "values": [{"measurement": "hIR-A mem Rel. aff. (%)", "setting": "[1]", "result": 0.66, "unit": "%"}, {"measurement": "hIR-B mem Rel. aff. (%)", "setting": "[2]", "result": 0.59, "unit": "%"}, {"measurement": "IGF1R mem Rel. aff. (%)", "setting": "[3]", "result": 0.29, "unit": "%"}, {"measurement": "Lipogenesis Rel. pot. (%)", "setting": "primary rat adipocytes", "result": 0.64, "unit": "%"}, {"measurement": "PK normal rat [T1/2, s.c. (h)]", "setting": "[4]", "result": 48, "unit": "h"}, {"measurement": "PK STZ rat [T1/2, s.c. (h)]", "setting": "[5]", "result": 50, "unit": "h"}, {"measurement": "AOCBG normal rat", "setting": "[6]", "result": 248, "unit": "mM·h"}, {"measurement": "AOCBG STZ rat", "setting": "[7]", "result": 2771, "unit": "mM·h"}, {"measurement": "Δ purity", "setting": "[8]", "result": 4.3, "unit": "%"}, {"measurement": "Kd", "setting": "hFcRn ectodomain", "result": 1.5, "unit": "µM"}]}]}
